Reference: US11160826B1, “Cholesterol lowering drugs for the treatment of hepatic encephalopathy” (United States Government as represented by the Department …, priority 2017, dated 2021)
“Also recorded” adds a separate entry of the source.

Key:
[1] = tested on: AOM-induced acute liver failure; details: mouse model of acute liver failure, McMillin et al. 2016; cited from earlier work
Cyp46A1 = test: Expression of Cyp46A1 in primary cortical neuronal culture; assay type: cell-based, mouse; details: 10 μM with 10 μM DCA, 24 hr
Source text: Primary cortical neurons were isolated and cultured using methodology previously described (McMillin, M. et al. (2014) Journal of hepatology 61(6): 1260-6). Primary neurons were isolated from P1 mouse pups. Mice were decapitated and whole brains were removed. The cortex was isolated and meninges and dura were removed. Cortical tissue was mechanically disrupted and filtered through a 100 μm filter. Neurons were pelleted by centrifugation at 1400 g. Neurons were suspended in media and plated on 12-well plates with 750,000 cells per well. After 24 hours, cells were washed and media was replaced and supplemented with 2% B27 growth supplement. […] At this point, cells were lysed and used for immunoblot or RTPCR analyses.
RNA was extracted from tissue or primary neurons using an RNeasy Mini Kit (Qiagen, Germantown, Md.) according to the manufacturer's instructions. Synthesis of cDNA was accomplished using a Bio-Rad iScript™ cDNA Synthesis Kit. […]
Specific antibodies against Cyp46A1 and β-actin were used. […] Data are expressed as fold change in fluorescent band intensity of target antibody divided by β-actin or GAPDH, which are used as loading controls. […] Band intensity quantifications were performed using ImageJ software.

[2] = tested on: AOM-induced acute liver failure; test: DigiGait ventral plane gait analysis of AOM-treated mice; assay type: in vivo, C57Bl/6 mice; details: approximately 16 hours after AOM injection
Experimental: (§1) Acute liver failure and HE was induced using the hepatotoxin azoxymethane (AOM) as previously described (McMillian, M. et al. (2016) Am. J. Pathol. 186(2): 312-23; McMillin, M. et al. Front Cell Neurosci. (2017) 11: 191; McMillin, M. et al. (2014) Journal of Hepatology 6(1): 1260-6; McMillin, M. et al. (2016) J. Neuroinflammation 13(1): 198). Briefly, C57Bl/6 or Cyp7A1−/− mice were injected with AOM (100 mg/kg ip) and placed on heating pads set to 37° C. to ensure normothermia. To reduce serum and cortical bile acid levels, C57Bl/6 mice were fed a diet supplemented with 2% cholestyramine (Dyets Inc.; Bethelhem, Pa.), or the control diet AIN-93G, for 3 days prior to the injection of AOM. […] This same approach was used to infuse 2-hydroxypropyl-β-cyclodextrin (2-HβC; 6 mg/kg/day, MilliporeSigma) to inhibit cholesterol accumulation. The infusion cannulas were implanted using the co-ordinates AP −0.34, ML −1.0, DV −2.0. This surgery was performed 3 days prior to the injection of AOM to allow the mice to recover prior to the onset of acute liver failure to minimize mortality.
Starting at 12 hr after injection, mice were monitored at least every 2 hours for body temperature, weight and neurological score as previously described (McMillin, M. et al. Front Cell Neurosci. (2017) 11: 191; McMillin, M. et al. (2016) J. Neuroinflammation 13(1): 198). The neurological score was assessed by an investigator blind to the treatment groups and is a summation of the scores given for the following parameters: pinna reflex, corneal reflex, tail flexion, escape response, righting reflex and gait. […] These paw prints were analyzed using DigiGait Analysis and Imager software (Mouse Specifics Inc, Framingham, Mass., USA) and measures of neuromuscular function were quantified, including the paw angle in fore- and hind limbs (to measure the degree of external rotation), gait symmetry (ratio of forelimb stepping frequency to hindlimb stepping frequency) and the ataxia coefficient for fore and hind limbs (calculated by [maximum stride length−minimum stride length]/average stride length).

[3] = tested on: AOM-induced acute liver failure; test: Neurological score and time to coma in the AOM mouse model of acute liver failure / hepatic encephalopathy; assay type: in vivo, C57Bl/6 mice; details: ICV infusion started 3 days prior to AOM; for neurological decline (neurological score): AOM-treated mice (100 mg/kg ip), 100 mg/kg; for time taken to reach hepatic coma: AOM-treated mice
Experimental: as §1
Starting at 12 hr after injection, mice were monitored at least every 2 hours for body temperature, weight and neurological score as previously described (McMillin, M. et al. Front Cell Neurosci. (2017) 11: 191; McMillin, M. et al. (2016) J. Neuroinflammation 13(1): 198). The neurological score was assessed by an investigator blind to the treatment groups and is a summation of the scores given for the following parameters: pinna reflex, corneal reflex, tail flexion, escape response, righting reflex and gait. Each parameter was assigned a score between 2 (normal) and 0 (absence of reflexes and presence of severe ataxia), and summed to give a neurological score out of 12. At approximately 16 hours after AOM injection, the gait of these experimental mice was further examined using ventral plane imaging technology (DigiGait, Mouse Specifics Inc, Framingham, Mass., USA) which images the underside of animals walking atop a motorized, transparent treadmill belt thereby generating digital paw prints. These paw prints were analyzed using DigiGait Analysis and Imager software (Mouse Specifics Inc, Framingham, Mass., USA) and measures of neuromuscular function were quantified, including the paw angle in fore- and hind limbs (to measure the degree of external rotation), gait symmetry (ratio of forelimb stepping frequency to hindlimb stepping frequency) and the ataxia coefficient for fore and hind limbs (calculated by [maximum stride length−minimum stride length]/average stride length). […]

AOM-induced liver damage = test: Assessment of liver damage and function (H&E, plasma ALT, AST); assay type: in vivo, C57Bl/6 mice; details: 20 hour post-AOM injection; central (ICV) infusion
Experimental: as §1, with “This surgery was performed 3 days prior to the injection of AOM to allow the mice to recover prior to the onset of acute liver failure to minimize mortality.” left out
Liver damage was assessed by H&E staining according to previously published protocols (McMillin, M. et al. (2017) Front Cell Neurosci. 11: 191). […]
Liver function was assessed by measuring plasma alanine aminotransferase (ALT) and aspartate aminotransferase (AST) using the IDEXX Catalyst One machine from IDEXX Laboratories, Inc (Westbrook, […].).

cholesterol = test: Measurement of brain cholesterol (total/free kit, Nile Red, Filipin III staining); assay type: in vivo, C57Bl/6 mice
Experimental: as §1
Total, free and esterified cholesterol was assessed in brain homogenates using a BioVision Total Cholesterol and Cholesteryl Ester Assay Kit following the instructions from the vendor. The subcellular location of cholesterol was assessed using Nile Red staining (for intracellular cholesterol (Pol, A. et al. (2001) J. Cell Biol. 152(5): 1057-70)) and Filipin III staining (for membrane bound cholesterol (Vanier and Latour (2015) Methods Cell Biol. 126: 357-75)). Briefly, mice were transcardially perfused with ice-cold phosphate buffered saline (PBS), followed by 4% paraformaldehyde (PFA) in PBS. Whole brains were rapidly removed and post-fixed in PFA overnight at 4° C. Brains were cryoprotected in 30% sucrose (in PBS) and embedded in OCT compound. Thirty micrometer sections were cut through the frontal cortex region; sections were rinsed in PBS and further fixed in 4% PFA for 10 minutes at room temperature. Free-floating sections were incubated with Filipin III (0.5 μg/mL in 10% bovine serum albumin/PBS) for 2 hours at room temperature, or with Nile Red (10 μg/mL in PBS) for 30 minutes at room temperature. Sections were washed in PBS, mounted onto microscope slides and imaged using a Bio-Rad Zoe™ Fluorescent Cell Imager (Hercules, Calif.). Field images were quantified for percent-positive area of Nile Red or Filipin III staining using ImageJ software (National Institutes of Health, Bethesda, Md.).

[4] = tested on: models of Niemann-Pick Type C disease; details: Davidson et al. 2009; cited from earlier work
[5] = listed as 2-hydroxypropyl-cyclodextrin
[6] = AOM-treated mice, coma time point, pretreatment from 3 days prior to AOM

C[C@H](CCC(=O)O)[C@H]1CC[C@H]2[C@@H]3[C@H](O)C[C@@H]4C[C@H](O)CC[C@]4(C)[C@H]3C[C@H](O)[C@]12C [cholic acid]
neurological decline associated with acute liver failure (previous studies) [1]: worsened the neurological decline

C/C=C1\C(=O)C[C@H]2[C@@H]3CCC4=CC(=O)CC[C@]4(C)[C@H]3CC[C@]12C [guggulsterone, Guggulsterone]
DCA-induced decrease of Cyp46A1 expression in primary neurons (Cyp46A1): could be prevented by pre-treatment

2-hydroxypropyl-β-cyclodextrin [2-HβC]
ataxia co-efficient of fore and hind limbs [2]: returned the ataxia co-efficient back to control levels | gait symmetry (ratio of forelimb to hind limb stepping frequency) [2]: returned the gait symmetry to control levels | paw angle of fore and hind limbs (degree of external rotation) [2]: reduced the paw angle of AOM-treated mice to values similar to control | neurological decline (neurological score) [3]: significantly delayed the neurological decline; also recorded: reduces neurological decline | neurological decline (neurological score) [3, 5]: dramatically delayed the onset of neurological complications | time taken to reach hepatic coma [3]: increased the time taken to reach hepatic coma | time taken to reach hepatic coma [3, 5]: increased the time it took the mice to reach hepatic coma | AOM-induced liver damage (H&E staining, ALT, AST) (AOM-induced liver damage): does not have any hepatoprotective effects; also recorded: does not influence liver function | cortex cholesterol accumulation (cholesterol; AOM-treated mice, FIG. 17 legend): reduced | AOM-induced increase in Filipin III staining (membrane-bound cholesterol) in the cortex (cholesterol; [6]): attenuated the AOM-induced increase | AOM-induced increase in Nile Red staining (intracellular cholesterol) in the cortex (cholesterol; [6]): attenuated the AOM-induced increase | AOM-induced increase in free cholesterol content in the cortex (cholesterol; [6]): did prevent the AOM-induced buildup | AOM-induced increase in total cholesterol content in the cortex (cholesterol; [6]): did prevent the AOM-induced buildup | basal levels of cholesterol in the cortex (cholesterol; vehicle-treated mice, infusion into the brain): did not decrease | excessive cholesterol buildup in the brain [4]: prevent excessive cholesterol buildup in the brain
